One experiment deals with T1, alpha-ENaC (Homo sapiens, UniProt P37088+P51168+P51170).
T1 construct: expressed in transfected cells; host or cells: HEK293T
T1 sequence (P37088 1-669): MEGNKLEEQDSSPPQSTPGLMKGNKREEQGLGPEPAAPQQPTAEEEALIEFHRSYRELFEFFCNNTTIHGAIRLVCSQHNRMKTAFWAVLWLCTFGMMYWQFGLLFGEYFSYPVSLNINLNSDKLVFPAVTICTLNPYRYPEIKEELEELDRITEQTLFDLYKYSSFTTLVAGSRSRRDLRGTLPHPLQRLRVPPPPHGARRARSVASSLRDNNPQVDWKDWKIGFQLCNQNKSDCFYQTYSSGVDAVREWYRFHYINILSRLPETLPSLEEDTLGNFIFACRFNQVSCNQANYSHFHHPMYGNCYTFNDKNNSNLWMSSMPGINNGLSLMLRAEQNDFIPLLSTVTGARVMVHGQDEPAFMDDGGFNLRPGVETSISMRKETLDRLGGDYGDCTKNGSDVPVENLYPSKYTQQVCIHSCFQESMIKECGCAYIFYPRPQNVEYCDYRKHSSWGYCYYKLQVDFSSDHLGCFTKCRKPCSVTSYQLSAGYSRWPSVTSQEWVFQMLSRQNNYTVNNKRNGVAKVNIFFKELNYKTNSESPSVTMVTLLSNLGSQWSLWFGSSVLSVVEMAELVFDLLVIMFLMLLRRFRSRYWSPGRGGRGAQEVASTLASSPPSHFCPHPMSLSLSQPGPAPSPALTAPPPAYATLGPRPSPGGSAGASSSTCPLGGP
T1 sequence (P51168 1-640): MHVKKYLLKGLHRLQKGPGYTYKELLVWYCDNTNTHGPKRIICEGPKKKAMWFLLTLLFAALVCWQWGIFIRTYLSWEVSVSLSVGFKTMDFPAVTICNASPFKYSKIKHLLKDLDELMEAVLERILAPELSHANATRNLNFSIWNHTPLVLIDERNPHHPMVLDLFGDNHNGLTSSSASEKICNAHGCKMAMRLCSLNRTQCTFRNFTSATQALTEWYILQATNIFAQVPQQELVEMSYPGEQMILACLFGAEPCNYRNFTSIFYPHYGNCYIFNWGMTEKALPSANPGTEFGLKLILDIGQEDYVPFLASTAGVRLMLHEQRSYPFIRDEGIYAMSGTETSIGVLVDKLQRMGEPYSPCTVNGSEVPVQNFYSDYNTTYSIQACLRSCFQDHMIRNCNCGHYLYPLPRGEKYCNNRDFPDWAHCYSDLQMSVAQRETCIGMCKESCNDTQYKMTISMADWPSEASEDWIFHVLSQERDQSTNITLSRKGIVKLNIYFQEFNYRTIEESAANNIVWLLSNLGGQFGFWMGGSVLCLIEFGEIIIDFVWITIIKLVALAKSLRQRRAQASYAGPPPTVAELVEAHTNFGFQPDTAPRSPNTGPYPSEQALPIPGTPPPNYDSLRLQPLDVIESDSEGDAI
T1 sequence (P51170 1-649): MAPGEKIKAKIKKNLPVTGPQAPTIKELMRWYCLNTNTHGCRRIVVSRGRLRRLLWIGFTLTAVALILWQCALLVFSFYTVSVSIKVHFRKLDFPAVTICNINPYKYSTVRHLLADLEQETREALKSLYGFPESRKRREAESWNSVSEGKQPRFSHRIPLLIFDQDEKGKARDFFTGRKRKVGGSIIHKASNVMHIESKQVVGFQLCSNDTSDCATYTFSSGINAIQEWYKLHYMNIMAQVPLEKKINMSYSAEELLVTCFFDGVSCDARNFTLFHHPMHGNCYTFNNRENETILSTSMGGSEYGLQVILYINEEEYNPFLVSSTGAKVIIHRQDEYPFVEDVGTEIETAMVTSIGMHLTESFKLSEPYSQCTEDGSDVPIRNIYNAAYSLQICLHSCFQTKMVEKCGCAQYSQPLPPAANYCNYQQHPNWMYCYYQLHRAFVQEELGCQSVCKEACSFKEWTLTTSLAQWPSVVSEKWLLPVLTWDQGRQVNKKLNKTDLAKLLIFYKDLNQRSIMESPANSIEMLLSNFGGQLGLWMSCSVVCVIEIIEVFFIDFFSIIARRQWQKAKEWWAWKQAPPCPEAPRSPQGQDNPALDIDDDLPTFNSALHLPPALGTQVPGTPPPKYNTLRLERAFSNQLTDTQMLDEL
Put plainly: Internalization of alpha-ENaC in HEK293T cells, GFP-tagged alpha-ENaC co-expressed with beta and gamma ENaC. It is filed as cell-based. To be noted: beta-ENaC co-expressed, FIGS. 5A-5U. An excerpt:
HEK293T cells were transfected with gfp-αENaC where gfp was fused at the N-terminus of ENaC and unlabeled βENaC and γENaC using lipofectamine in 384 well plates as per the manufacturer's instructions and as published previously (see, e.g., Hobbs et al. Am J Physiol Lung Cell Mol Physiol. 2013 December; 305(12):L990-L1001. doi: 10.1152/ajplung.00103.2013. Epub 2013 October; Garland et al. Proc Natl Acad Sci USA. 2013 Oct. 1; 110(40):15973-8. doi: 10.1073/pnas.1311999110. Epub 2013 Sep. 16.; Tan et al. J Physiol. 2014 Dec. 1; 592(Pt 23):5251-68). Twenty-four hours later, peptide or vehicle control were added at t=0 and fluorescence was read using a Tecan M1000 plate reader 3 h later. Fluorescence was read at 488 nm (excitation)/510 nm (emission).

The subject of another experiment is βENaC-Tg mice. The class given is in vivo. An excerpt:
Like CF patients, βENaC-Tg mice are disease free at birth, but soon develop obstructive lung disease (Zhou, Z., et al. Am J Respir Crit Care Med 178, 1245-1256 (2008)). C57BL:FVB and C57BL:C3H mixed strains have 90% and 50% mortality, respectively, and the reproducibility of the disease on these backgrounds is sufficiently high that reliable data are produced with n of about 8-10 animals/group. Furthermore, the βENaC-Tg mouse responds to therapeutic interventions in a fashion similar to CF/COPD in humans, and the development of lung disease can be prevented following inhibition of lung disease at birth (Livraghi, A., et al. J Immunol 182, 4357-4367 (2009)). S18-derived peptides or vehicle were dosed one to three times a day by intranasal instillation (1 μl/g body weight) for 14 days in parallel cohorts of mice. Mice were weighed daily and, if a diuretic effect was found, the volume excreted was replaced by sub-cutaneous injections of sterile saline. At the end of the treatment, mice were sacrificed for phenotypic analysis.

Here are results for one compound from patent US20200031866A1, “PEPTIDE INHIBITORS OF SODIUM CHANNELS” (SPYRYX BIOSCIENCES, INC., priority 2016, published 2020).

Structures are written as SMILES. Where two headings read alike, the source gives them in different places. Square brackets hold non-standard residues; d marks the D form. Peptide text beside a SMILES is read from it.

For `CC[C@H](C)[C@H](NC(=O)[C@@H]1CCCN1C(=O)[C@H](CC(C)C)NC(=O)[C@@H](C)NC(=O)[C@@H](C)N)C(=O)N1CCC[C@H]1C(=O)N[C@@H](CC(C)C)C(=O)N[C@@H](CC(=O)O)C(=O)N[C@@H](CCC(N)=O)C(=O)N[C@H](C(=O)N[C@H](C)C(=O)N[C@H](C)C(N)=O)[C@@H](C)O` [SEQ ID NO:128, aaLPIPLDQTaa] (H-[dA][dA]LPIPLDQT[dA][dA]-NH2), the “reduction of alpha-ENaC / functional receptor on the cell surface” value at alpha-ENaC is “effective in reducing alpha-ENaC”. Also, the percent survival result was “increased percent survival” with βENaC-Tg mice (βENaC-Tg C57BL:C3H mice, fourteen-day treatment, FIGS. 7C, 7D, 7F); “increased percent survival” in the experiment with βENaC-Tg mice (βENaC-Tg C57BL:C3H mice, once daily dosing, FIG. 7E left panel); “more effective than inhaled SEQ ID NO:142 at increasing percent survival” in the experiment with βENaC-Tg mice (βENaC-Tg C57BL:FVB mice, fourteen-day inhaled treatment, FIG. 7B).
